In US9198433B2, “Substituted benzene fungicides” (E I DU PONT DE NEMOURS AND COMPANY, priority 2007, dated 2015):
Read-outs that look alike come from different tables or passages of the source. Marks after values point to notes of the source that are not given here.

Experiments:
Assay type in all cases: in vivo
[1] = tested on: Puccinia recondita f. sp. tritici; test: Test B: wheat leaf rust, preventive spray on wheat seedlings, disease rating
Procedure, shortened: (§1)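 Applied as preventive foliar sprays to wheat seedlings, to run-off. Formulation: acetone (3% of final volume) predissolution, then acetone/water 50/50 with surfactant at 250 ppm. Rates were 200 ppm except flagged values at 40 or 50 ppm.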

Septoria tritici = test: Test D: wheat leaf blotch, preventive spray on wheat seedlings, disease rating
Procedure, shortened: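 Preventive test: one day after run-off spraying (200 ppm, equal to 500 g/ha, unless marked 40 or 50 ppm; acetone/water plus 250 ppm Trem 014), seedlings received S. tritici spore inoculum. Disease scored after 48 h at 24 °C in saturated air and 19 further days at 20 °C.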

Fusarium graminearum = details: wheat head scab
Botrytis cinerea = test: Test F: tomato Botrytis, preventive spray on tomato seedlings, disease rating
Procedure, shortened: (§2)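 Disease ratings follow a preventive run-off spray of tomato seedlings. Compounds were first dissolved in acetone (3% of volume), then suspended in 50/50 acetone/water containing 250 ppm Trem 014. Test level 200 ppm (equivalent to 500 g/ha) except where marked * for 40 ppm or ** for 50 ppm.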

Alternaria solani = test: Test H: tomato early blight, preventive spray on tomato seedlings, disease rating
Procedure, shortened: as §2

[2] = tested on: Erysiphe graminis f. sp. tritici; test: Test A: wheat powdery mildew, preventive spray on wheat seedlings, disease rating
Procedure, shortened: as §1

Septoria nodorum = test: Test C: wheat glume blotch, preventive spray on wheat seedlings, disease rating
Procedure, shortened: as §1

Phytophthora infestans = details: tomato late blight
Plasmopara viticola = test: Test K: grape downy mildew, spray on grape seedlings after inoculation, disease rating; details: 200 ppm
Source text: The test compounds were first dissolved in acetone in an amount equal to 3% of the final volume and then suspended at the desired concentration (in ppm) in acetone and purified water (50/50 mix) containing 250 ppm of the surfactant Trem® 014 (polyhydric alcohol esters). The resulting test suspensions were then used in Tests A-L. Spraying a 200 ppm test suspension to the point of run-off on the test plants was the equivalent of an application rate of 500 g/ha. Grape seedlings were inoculated with a spore suspension of Plasmopara viticola (the causal agent of grape downy mildew) and incubated in a saturated atmosphere at 20° C. for 24 h. After a short drying period, the test suspension was sprayed to the point of run-off on the grape seedlings and then moved to a growth chamber at 20° C. for 6 days, after which the test units were placed back into a saturated atmosphere at 20° C. for 24 h. Upon removal, disease ratings were made. […] A dash (-) indicates no test results. All results are for 200 ppm except where followed by an “*”, which indicates 40 ppm or “**”, which indicates 50 ppm.

Rhizoctonia oryzae = test: Test I: turf brown patch, preventive spray on creeping bent grass seedlings, disease rating; details: 200 ppm
Source text: The test compounds were first dissolved in acetone in an amount equal to 3% of the final volume and then suspended at the desired concentration (in ppm) in acetone and purified water (50/50 mix) containing 250 ppm of the surfactant Trem® 014 (polyhydric alcohol esters). The resulting test suspensions were then used in Tests A-L. Spraying a 200 ppm test suspension to the point of run-off on the test plants was the equivalent of an application rate of 500 g/ha. The test suspension was sprayed to the point of run-off on creeping bent grass seedlings. […] A dash (-) indicates no test results. All results are for 200 ppm except where followed by an “*”, which indicates 40 ppm or “**”, which indicates 50 ppm.

Pythium aphanidermatum = test: Test L: bluegrass pythium blight, preventive spray on bluegrass seedlings, disease rating; details: 200 ppm
Source text: The test compounds were first dissolved in acetone in an amount equal to 3% of the final volume and then suspended at the desired concentration (in ppm) in acetone and purified water (50/50 mix) containing 250 ppm of the surfactant Trem® 014 (polyhydric alcohol esters). The resulting test suspensions were then used in Tests A-L. Spraying a 200 ppm test suspension to the point of run-off on the test plants was the equivalent of an application rate of 500 g/ha. The test suspension was sprayed to the point of run-off on bluegrass seedlings. […] A dash (-) indicates no test results. All results are for 200 ppm except where followed by an “*”, which indicates 40 ppm or “**”, which indicates 50 ppm.

[3] = 40 ppm (*), 100 = 100% disease control, 0 = no control relative to controls
[4] = 200 ppm, 100 = 100% disease control, 0 = no control relative to controls

SMILES | Percentage Disease Control, Test B ([1]; 40 ppm (*)) | Percentage Disease Control, Test D (Septoria tritici; 40 ppm (*)) | Percentage Disease Control, Test E (Fusarium graminearum; 40 ppm (*)) | Percentage Disease Control, Test A ([2]; 40 ppm (*)) | Percentage Disease Control, Test C (Septoria nodorum; 40 ppm (*)) | Percentage Disease Control, Test F (Botrytis cinerea; 200 ppm) | Percentage Disease Control, Test H (Alternaria solani; 200 ppm) | Percentage Disease Control, Test C (Septoria nodorum; 200 ppm) | also measured
COC(=O)NOc1cc(-c2cccc(Cl)c2)ccc1Cl [Cmpd 19] | 99* % | 98* % | 99* % | 99* % | 97* % | – | – | – | Percentage Disease Control, Test F (Botrytis cinerea; 40 ppm (*)): 0* %; Percentage Disease Control, Test H (Alternaria solani; 40 ppm (*)): 63* %
CCCCn1ccc(-c2ccc(Cl)c(CNC(=O)OC)c2)n1 [Cmpd 46] | 99* % | 91* % | 94* % | 94* % | – | 0% | 0% | 99% | –
COC(=O)NCc1cc(-c2ccn(-c3ccc(C)cn3)n2)ccc1Cl [Cmpd 48] | 100* % | 99* % | 94* % | 65* % | 99* % | – | – | – | Percentage Disease Control, Test F (Botrytis cinerea; 40 ppm (*)): 0* %; Percentage Disease Control, Test H (Alternaria solani; 40 ppm (*)): 99* %
COC(=O)NCc1cc(-c2ccn(CCCC(C)C)n2)ccc1Cl [Cmpd 41] | 100* % | 98* % | 99* % | – | – | 0% | 0% | 100% | Percentage Disease Control, Test A ([2]; 200 ppm): 99%
C#CCCCn1ccc(-c2ccc(Cl)c(CNC(=O)OC)c2)n1 [Cmpd 24] | 99* % | – | 96* % | 96* % | 99* % | 0% | 0% | – | Percentage Disease Control, Test J (Phytophthora infestans; 40 ppm (*)): 0* %; Percentage Disease Control, Test K (Plasmopara viticola): 83%; Percentage Disease Control, Test I (Rhizoctonia oryzae): 0%
COC(=O)NCc1cc(-c2ccn(CCCF)n2)ccc1Cl [Cmpd 43] | – | – | – | – | – | 0% | 0% | 95% | Percentage Disease Control, Test B ([1]; 200 ppm): 99%; Percentage Disease Control, Test D (Septoria tritici; 200 ppm): 93%; Percentage Disease Control, Test E (Fusarium graminearum; 200 ppm): 94%; Percentage Disease Control, Test A ([2]; 200 ppm): 91%
COC(=O)NCc1cc(-c2ccn(CCCC#N)n2)ccc1Cl [Cmpd 32] | – | – | – | – | – | 0% | 0% | 0% | Percentage Disease Control, Test J (Phytophthora infestans; 200 ppm): 0%; Percentage Disease Control, Test B ([1]; 200 ppm): 80%; Percentage Disease Control, Test D (Septoria tritici; 200 ppm): 88%; Percentage Disease Control, Test L (Pythium aphanidermatum): 0%; Percentage Disease Control, Test K (Plasmopara viticola): 34%; Percentage Disease Control, Test A ([2]; 200 ppm): 41%; Percentage Disease Control, Test I (Rhizoctonia oryzae): 0%
COC(=O)NCc1cc(-c2ccn(S(=O)(=O)N(C)C)n2)ccc1Cl [Cmpd 35] | – | – | – | – | – | 0% | 0% | 0% | Percentage Disease Control, Test B ([1]; 200 ppm): 76%; Percentage Disease Control, Test D (Septoria tritici; 200 ppm): 100%; Percentage Disease Control, Test E (Fusarium graminearum; 200 ppm): 0%; Percentage Disease Control, Test A ([2]; 200 ppm): 76%
C#CCCCn1nc(-c2ccc(Cl)c(CNC(=O)OC)c2)cc1C [Cmpd 39] | 100* % | 100* % | 91* % | 99* % | 99* % | 0% | 0% | – | –
COC(=O)NCc1cc(-c2ccn(-c3cccc(C(F)(F)F)c3)n2)ccc1Cl [Cmpd 50] | 99* % | 100* % | 97* % | 100* % | 100* % | 0% | 55% | – | –
COC(=O)NCc1cc(-c2ccn(-c3cccc(C)n3)n2)ccc1Cl [Cmpd 49] | 100* % | 100* % | 99* % | – | – | 0% | – | 99% | Percentage Disease Control, Test H (Alternaria solani; 40 ppm (*)): 99* %; Percentage Disease Control, Test A ([2]; 200 ppm): 79%
COC(=O)NCc1cc(-c2cnn(CCC[Si](C)(C)C)c2)ccc1Cl [Cmpd 126] | – | – | – | – | – | – | – | – | Percentage Disease Control, Test B [1, 3]: 98* %; Percentage Disease Control, Test D (Septoria tritici; [3]): 97* %; Percentage Disease Control, Test E (Fusarium graminearum; [4]): 0%; Percentage Disease Control, Test F (Botrytis cinerea; [4]): 0%; Percentage Disease Control, Test H (Alternaria solani; [4]): 0%; Percentage Disease Control, Test A [2, 4]: 95%; Percentage Disease Control, Test C (Septoria nodorum; [4]): 99%
COC(=O)NCc1cc(-c2cc(C(F)(F)F)n(CCC[Si](C)(C)C)n2)ccc1Cl [Cmpd 45] | 100* % | 99* % | – | 99* % | – | 0% | 0% | 100% | Percentage Disease Control, Test E (Fusarium graminearum; 200 ppm): 26%
COC(=O)NCc1cc(-c2ccn(CCCC(c3ccc(F)cc3)c3ccc(F)cc3)n2)ccc1Cl [Cmpd 36] | 99* % | 97* % | – | 93* % | 99* % | 0% | 78% | – | Percentage Disease Control, Test E (Fusarium graminearum; 200 ppm): 26%
COC(=O)NCc1cc(-c2ccn(CCCc3ccccc3)n2)ccc1Cl [Cmpd 42] | 100* % | 100* % | 100* % | 98* % | 100* % | 0% | 0% | – | –
COC(=O)NCc1cc(-c2cc(C)n(CCC[Si](C)(C)C)n2)ccc1Cl [Cmpd 40] | 100* % | 100* % | 13* % | 99* % | 99* % | – | – | – | Percentage Disease Control, Test F (Botrytis cinerea; 40 ppm (*)): 0* %; Percentage Disease Control, Test H (Alternaria solani; 40 ppm (*)): 50* %
COC(=O)NCc1cc(-c2ccn(Cc3ccccc3Cl)n2)ccc1Cl [Cmpd 37] | 100* % | 100* % | 99* % | 99* % | 100* % | 0% | 0% | – | –
COC(=O)NCc1cc(C(C)=NOC[Si](C)(C)C)ccc1Cl [Compound 6] | 100* % | 100* % | 68* % | 99* % | 96* % | – | – | – | –
COC(=O)NCc1cc(-c2nn(CCC[Si](C)(C)C)cc2Cl)ccc1Cl [Cmpd 47] | 100* % | 99* % | – | 98* % | 100* % | 0% | 66% | – | Percentage Disease Control, Test E (Fusarium graminearum; 200 ppm): 94%
